This note sets out measurements from patent US20170305857A1, “N-ACYLPIPERIDINE ETHER TROPOMYOSIN-RELATED KINASE INHIBITORS” (Pfizer Limited, priority 2014, published 2017).

The IC50 is the midpoint of a concentration-inhibition curve.

T1 sequence (P04629 441-796): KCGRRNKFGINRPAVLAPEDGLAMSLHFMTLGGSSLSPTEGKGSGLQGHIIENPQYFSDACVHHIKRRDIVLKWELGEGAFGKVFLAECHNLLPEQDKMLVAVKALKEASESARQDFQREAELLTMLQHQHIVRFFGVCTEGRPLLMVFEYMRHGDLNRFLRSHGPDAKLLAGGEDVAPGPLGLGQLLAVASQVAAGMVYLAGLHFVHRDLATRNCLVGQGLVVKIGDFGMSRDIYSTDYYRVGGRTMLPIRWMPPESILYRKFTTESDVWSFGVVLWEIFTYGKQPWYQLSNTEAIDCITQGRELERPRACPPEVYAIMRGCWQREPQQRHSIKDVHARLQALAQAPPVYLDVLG

The experiment concerns the target T1, recombinant His-tagged cytoplasmic domains of TRKA receptor (NTRK1, PV3144, aa 441-796) (Homo sapiens, UniProt P04629).
T1 construct: aa 441-796; His; purchased Invitrogen PV3144
As to the kind of experiment: Isolated TRK enzyme assay (HTRF KinEASE-TK, PV3144 TrkA enzyme assay). It is filed as biochemical. The following applies: 4 nM enzyme, 40 uM ATP, 35 min, arithmetic mean where more than one reading. The gist of the method:
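Enzyme and ATP were preincubated with compound for 20 min at room temperature in buffer with 10 mM MgCl and 2 mM DTT. TK-substrate-Biotin was then added (1 uM final) and the reaction run for an enzyme-specific optimized time. Phosphorylation was read by HTRF, and IC50 values came from sigmoid fits of percent inhibition normalized to plate controls, averaged over replicate readings.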
Background: TR-FRET usually uses a lanthanide donor and a delayed reading to cut background.
In the case of `NC(=O)c1cc(-c2cccnc2)ccc1OC1CCN(C(=O)Cc2ccc(OC(F)(F)F)cc2)CC1` [Example 150, 5-(pyridin-3-yl)-2-[(1-{[4-(trifluoromethoxy)phenyl]acetyl}piperidin-4-yl)oxy]benzamide], the IC50 stood at 11 nM.

Consider `NC(=O)c1cc(-c2cnn(CCO)c2)cnc1OC1CCN(C(=O)Cc2ccc(OC3CC3)cc2)CC1` [Example 176, 2-[(1-{[4-(cyclopropyloxy)phenyl]acetyl}piperidin-4-yl)oxy]-5-[1-(2-hydroxyethyl)-1H-pyrazol-4-yl]pyridine-3-carboxamide], for which the IC50 came out at 12.2 nM.

With `NC(=O)c1cc(-c2ccc3c(c2)CNS3(=O)=O)ccc1OC1CCN(C(=O)Cc2ccc(OC(F)(F)F)cc2)CC1` [Example 63, 5-(1,1-dioxido-2,3-dihydro-1,2-benzothiazol-5-yl)-2-[(1-{[4-(trifluoromethoxy)phenyl]acetyl}piperidin-4-yl)oxy]benzamide], the IC50 was found to be 6.7 nM.

For `Cc1n[nH]c(C)c1-c1cnc(OC2CCN(C(=O)Cc3ccc(OC(F)(F)F)cc3)CC2)c(C(N)=O)c1` [Example 59, 5-(3,5-dimethyl-1H-pyrazol-4-yl)-2-[(1-{[4-(trifluoromethoxy)phenyl]acetyl}piperidin-4-yl)oxy]pyridine-3-carboxamide], the IC50 was 10 nM.

With `Cn1cnc(-c2ccc(O[C@@H]3CCN(C(=O)Cc4ccc(OC(F)(F)F)cc4)C[C@@H]3F)c(C(N)=O)c2)c1` (racemic) [Example 52, 1:1 racemic mixture of 2-(((3S,4R)-3-fluoro-1-(2-(4-(trifluoromethoxy)phenyl)acetyl)piperidin-4-yl)oxy)-5-(1-methyl-1H-imidazol-4-yl)benzamide + (3R,4S) enantiomer], the IC50 is 4.5 nM.

`Cn1ccc(-c2ccc(OC3CCN(C(=O)Cc4ccc(OC(F)(F)F)cc4)CC3)c(C(N)=O)c2)n1` [Example 148, 5-(1-methyl-1H-pyrazol-3-yl)-2-[(1-{[4-(trifluoromethoxy)phenyl]acetyl}piperidin-4-yl)oxy]benzamide]: the half-maximal inhibitory concentration (IC50) was 12.6 nM.

Regarding `NCc1ccc(-c2ccc(OC3CCN(C(=O)Cc4ccc(OC(F)(F)F)cc4)CC3)c(C(N)=O)c2)cc1` [Example 105, 4′-(aminomethyl)-4-[(1-{[4-(trifluoromethoxy)phenyl]acetyl}piperidin-4-yl)oxy]biphenyl-3-carboxamide], the IC50 was found to be 5 nM.

Regarding `Cn1cnc(-c2ccc(OC3CCN(C(=O)Cc4ccc(OC(F)(F)F)cc4)CC3(C)C)c(C(N)=O)c2)c1` (racemic) [Example 49, Racemic 2-((3,3-dimethyl-1-(2-(4-(trifluoromethoxy)phenyl)acetyl)piperidin-4-yl)oxy)-5-(1-methyl-1H-imidazol-4-yl)benzamide], the IC50 came to 3.7 nM.

Regarding `Cc1nnc(-c2ccc(OC3CCN(C(=O)Cc4ccc(OC(F)(F)F)cc4)CC3)c(C(N)=O)c2)s1` [Example 147, 5-(5-methyl-1,3,4-thiadiazol-2-yl)-2-[(1-{[4-(trifluoromethoxy)phenyl]acetyl}piperidin-4-yl)oxy]benzamide], the IC50 came out at 12.6 nM.

Regarding `Cc1cn(-c2cnc(O[C@@H]3CCN(C(=O)Cc4ccc(OC(F)(F)F)cc4)C[C@@H]3F)c(C(N)=O)c2)cn1` [Example 162, 2-(((3S,4R)-3-fluoro-1-(2-(4-(trifluoromethoxy)phenyl)acetyl)piperidin-4-yl)oxy)-5-(4-methyl-1H-imidazol-1-yl)nicotinamide], the IC50 was 12.3 nM.

`Cn1cc(-c2ccc(O[C@H]3CCN(C(=O)Cc4ccc(OC(F)(F)F)cc4)C[C@H]3F)c(C(N)=O)c2)cn1` [Example 75, 2-{[(3R,4S)-3-fluoro-1-{[4-{trifluoromethoxy)phenyl]acetyl}piperidin-4-yl]oxy}-5-(1-methyl-1H-pyrazol-4-yl)benzamide]: the half-inhibitory concentration (IC50) is 0.9 nM.

As to `NC(=O)c1cc(-c2cc[nH]n2)ccc1OC1CCN(C(=O)Cc2ccc(OC(F)(F)F)cc2)CC1` [Example 177, 5-(1H-pyrazol-3-yl)-2-[(1-{[4-(trifluoromethoxy)phenyl]acetyl}piperidin-4-yl)oxy]benzamide], the concentration for half-maximal inhibition (IC50) came out at 12.3 nM.

Regarding `NC(=O)c1cc(-c2cc[nH]n2)cnc1OC1CCN(C(=O)Cc2ccc(SC(F)(F)F)cc2)CC1` [Example 60, 5-(1H-pyrazol-3-yl)-2-{[1-({4-[(trifluoromethyl)sulfanyl]phenyl}acetyl)piperidin-4-yl]oxy}pyridine-3-carboxamide], the IC50 is 10 nM.

For the compound `CC(N)c1ccc(-c2cnc(OC3CCN(C(=O)Cc4ccc(OC(F)(F)F)cc4)CC3)c(C(N)=O)c2)cc1` (stereo in doubt) [Example 96, 5-{4-[(1S)-1-aminoethyl]phenyl}-2-[(1-{[4-(trifluoromethoxy)phenyl]acetyl}piperidin-4-yl)oxy]pyridine-3-carboxamide], the IC50 amounted to 5 nM.

Take `Cn1cnc(-c2ccc(O[C@@H]3[C@@H]4CC[C@H]3CN(C(=O)Cc3ccc(OC(F)(F)F)cc3)C4)c(C(N)=O)c2)c1` [Example 47, 5-(1-methyl-1H-imidazol-4-yl)-2-(((1R,5S,8s)-3-(2-(4-(trifluoromethoxy)phenyl)acetyl)-3-azabicyclo[3.2.1]octan-8-yl)oxy)benzamide]: the IC50 was determined as 5.2 nM.

Turning to `NC(=O)c1cc(-c2c[nH]cn2)cnc1O[C@H]1CCN(C(=O)Cc2ccc(OC(F)(F)F)cc2)C[C@H]1F` [Example 141, 2-{[(3R,4S)-3-fluoro-1-{[4-(trifluoromethoxy)phenyl]acetyl}piperidin-4-yl]oxy}-5-(1H-imidazol-4-yl)pyridine-3-carboxamide], the IC50 is 1.4 nM.

For the compound `Cn1cc(-c2ccc(O[C@@H]3CCN(C(=O)Cc4ccc(OC(F)(F)F)cc4)C[C@@H]3F)c(C(N)=O)c2)cn1` [Example 74, 2-{[(3S,4R)-3-fluoro-1-{[4-(trifluoromethoxy)phenyl]acetyl}piperidin-4-yl]oxy}-5-(1-methyl-1H-pyrazol-4-yl)benzamide], the IC50 worked out at 0.9 nM.

Regarding `Cn1cnc(-c2ccc(O[C@H]3CCN(C(=O)Cc4ccc(OC(F)(F)F)cc4)C[C@@H]3F)c(C(N)=O)c2)c1` (single isomer, unassigned) [Example 8], the IC50 is 1.5 nM.

Regarding `NC(=O)c1cc(-c2cn[nH]c2)ncc1O[C@H]1CCN(C(=O)Cc2ccc(OC(F)(F)F)cc2)C[C@H]1F` [Example 88, 5-{[(3R,4S)-3-fluoro-1-{[4-(trifluoromethoxy)phenyl]acetyl}piperidin-4-yl]oxy}-2-(1H-pyrazol-4-yl)pyridine-4-carboxamide], the IC50 was 1.5 nM.

For `Cn1cnc(-c2ccc(O[C@@H]3C[C@H]4CC[C@@H](C3)N4C(=O)Cc3ccc(OC(F)(F)F)cc3)c(C(N)=O)c2)c1` [Example 48, 5-(1-methyl-1H-imidazol-4-yl)-2-(((1R,3s,5S)-8-(2-(4-(trifluoromethoxy)phenyl)acetyl)-8-azabicyclo[3.2.1]octan-3-yl)oxy)benzamide], the IC50 is 3.6 nM.

`NC(=O)c1cc(-c2cnn(CCO)c2)ccc1OC1CCN(C(=O)Cc2ccc(OC3CC3)cc2)CC1` [Example 130, 2-[(1-{[4-(cyclopropyloxy)phenyl]acetyl}piperidin-4-yl)oxy]-5-[1-(2-hydroxyethyl)-1H-pyrazol-4-yl]benzamide]: the half-maximal inhibitory concentration (IC50) came to 5.5 nM.

As to `NC(=O)c1cc(-c2cn[nH]c2)ncc1O[C@@H]1CCN(C(=O)Cc2ccc(OC3CC3)cn2)C[C@@H]1F` [Example 87, 5-{[(3S,4R)-1-{[5-(cyclopropyloxy)pyridin-2-yl]acetyl}-3-fluoropiperidin-4-yl]oxy}-2-(1H-pyrazol-4-yl)pyridine-4-carboxamide], the IC50 was determined as 6.8 nM.

For the compound `C[C@@H](N)c1ccc(-c2ccc(OC3CCN(C(=O)Cc4ccc(OC(F)(F)F)cc4)CC3)c(C(N)=O)c2)cc1` [Example 64, 4′-[(1R)-1-aminoethyl]-4-[(1-{[4-(trifluoromethoxy)phenyl]acetyl}piperidin-4-yl)oxy]biphenyl-3-carboxamide], the IC50 was 2.8 nM.

Take `CS(=O)(=O)Cn1cc(-c2cnc(O[C@@H]3CCN(C(=O)Cc4ccc(OC5CC5)cc4)C[C@@H]3F)c(C(N)=O)c2)cn1` [Example 28, 2-{[(3S,4R)-1-{[4-(cyclopropyloxy)phenyl]acetyl}-3-fluoropiperidin-4-yl]oxy}-5-{1-[(methylsulfonyl)methyl]-1H-pyrazol-4-yl}pyridine-3-carboxamide]: the IC50 worked out at 2.3 nM.

In the case of `NC(=O)c1cc(-c2cnn(C3CS(=O)(=O)C3)c2)cnc1O[C@H]1CCN(C(=O)Cc2ccc(OC(F)(F)F)cc2)C[C@H]1F` (racemic) [Example 38, 1:1 Cis-racemic 5-[1-(1,1-dioxidothietan-3-yl)-1H-pyrazol-4-yl]-2-{[3-fluoro-1-{[4-(trifluoromethoxy)phenyl]acetyl}piperidin-4-yl]oxy}pyridine-3-carboxamide], the IC50 is 2 nM.

Take `CS(=O)(=O)Cn1cc(-c2cnc(O[C@@H]3CCN(C(=O)Cc4ccc(OC(F)(F)F)c(F)c4)C[C@@H]3F)c(C(N)=O)c2)cn1` [Example 24, 2-{[(3S,4R)-3-fluoro-1-{[3-fluoro-4-(trifluoromethoxy)phenyl]acetyl}pipertdin-4-yl]oxy}-5-{1-[(methylsulfonyl)methyl]-1H-pyrazol-4-yl}pyridine-3-carboxamide]: the IC50 is 2.9 nM.

As to `Cn1cc(-c2cnc(O[C@@H]3CCN(C(=O)Cc4ccc(OC(F)(F)F)cc4)C[C@@H]3F)c(C(N)=O)c2)cn1` [Example 71, 2-{[(3S,4R)-3-fluoro-1-{[4-(trifluoromethoxy)phenyl]acetyl}piperidin-4-yl]oxy}-5-(1-methyl-1H-pyrazol-4-yl)pyridine-3-carboxamide], the IC50 turned out to be 1.3 nM.

In the case of `C[C@H](N)c1ccc(-c2ccc(OC3CCN(C(=O)Cc4ccc(OC(F)(F)F)cc4)CC3)c(C(N)=O)c2)cc1` [Example 66, 4'-[(1S)-1-aminoethyl]-4-[(1-{[4-(trifluoromethoxy)phenyl]acetyl}piperidin-4-yl)oxy]biphenyl-3-carboxamide], the IC50 stood at 2.8 nM.
